According to US12435108B2, “Teixobactin analogue and use thereof” (SUNSHINE LAKE PHARMA CO., LTD., priority 2019, dated 2025):

Tests used:
[1] = system: MRSA (SA86); settings: agar plate two-fold dilution, CLSI, 35 °C, 18 h
Experimental: (§1) For the determination of the minimum inhibitory concentration (MIC), according to the CLSI standard, a two-fold dilution method with a plate and a Denlay multi-point inoculator were used to conduct the drug sensitivity test. The test bacteria were enriched with MH broth or brain heart infusion. The drug solution was diluted two-fold with MH broth to prepare various required concentrations, and appropriate amounts were added to the plates respectively. After the MH agar medium was melted, it was quantitatively poured into the plates containing the drug solution and mixed uniformly. The final concentrations of the samples were: 128, 64, 32, 16, 8, 4, 2, 1, 0.5, 0.25, 0.125, 0.063, 0.031, 0.016, 0.008, 0.004 μg/mL, respectively. The test bacteria were inoculated (inoculation amount was 10^4 cfu/point) and then incubated at constant temperature of 35 □. The results were observed after 18 h. The minimum concentration of the drug contained in the sterile growth plate was the minimum inhibitory concentration (MIC). Selection of strain types: MRSA (SA86 and SA88), MSSA (ATCC29213), Enterococcus (ET6) and Streptococcus faecalis (SF).

[2] = system: MRSA (SA88); settings: agar plate two-fold dilution, CLSI, 35 °C, 18 h
Experimental: as §1

[3] = system: MSSA (ATCC29213); settings: Test Method 1: agar plate two-fold dilution, CLSI, 35 °C, 18 h
Experimental: as §1

[4] = system: Enterococcus (ET6); settings: agar plate two-fold dilution, CLSI, 35 °C, 18 h
Experimental: as §1

[5] = system: Streptococcus faecalis (SF); settings: agar plate two-fold dilution, CLSI, 35 °C, 18 h
Experimental: as §1

[6] = system: Mycobacterium smegmatis mc2155; test: MIC, 96-well dilution in 7H9 medium (Test Method 3); format: cell-based; settings: 96-well plate, 35±2 °C, 48 hours, highest concentration 64 μg/mL

Compound | In vitro antibacterial activity MIC, MRSA SA86 [1] [µg/mL] | In vitro antibacterial activity MIC, MRSA SA88 [2] [µg/mL] | In vitro antibacterial activity MIC, MSSA(ATCC29213) [3] [µg/mL] | In vitro antibacterial activity MIC, Enterococcus (ET6) [4] [µg/mL] | In vitro antibacterial activity MIC, Streptococcus faecalis(SF) [5] [µg/mL] | In vitro antibacterial activity MIC, Mycobacterium smegmatis mc2155 [6] [µg/mL]
CC[C@H](C)[C@H](NC(=O)[C@@H](Cc1ccccc1)NC)C(=O)N[C@@H](CO)C(=O)N[C@H](CCC(N)=O)C(=O)N[C@@H](C(=O)N[C@H](C(=O)N[C@@H](CO)C(=O)N[C@H]1C(=O)N[C@@H](C)C(=O)NC2(CCCCC2)C(=O)N[C@@H]([C@@H](C)CC)C(=O)O[C@H]1C)[C@@H](C)CC)[C@@H](C)CC.O=C(O)C(F)(F)F [Example 8] | 8 | 4 | 8 | – | – | –
CC[C@H](C)[C@H](NC(=O)[C@H](N)Cc1ccc(-c2ccccc2)cc1)C(=O)N[C@@H](CO)C(=O)N[C@H](CCC(N)=O)C(=O)N[C@@H](C(=O)N[C@H](C(=O)N[C@@H](CO)C(=O)N[C@H]1C(=O)N[C@@H](C)C(=O)N[C@@]2(C[C@H]2CC(F)F)C(=O)N[C@@H]([C@@H](C)CC)C(=O)O[C@H]1C)[C@@H](C)CC)[C@@H](C)CC [Example 13] | 8 | 8 | 8 | 8 | 8 | –
CC[C@H](C)[C@H](NC(=O)[C@@H](Cc1ccccc1)NC)C(=O)N[C@@H](CO)C(=O)N[C@H](CCC(N)=O)C(=O)N[C@@H](C(=O)N[C@H](C(=O)N[C@@H](CO)C(=O)N[C@H]1C(=O)N[C@@H](C)C(=O)N[C@@]2(C[C@H]2CC(F)F)C(=O)N[C@@H]([C@@H](C)CC)C(=O)O[C@H]1C)[C@@H](C)CC)[C@@H](C)CC.O=C(O)C(F)(F)F [Example 1] | 4 | – | 2 | 4 | – | 8
C=C[C@@H]1C[C@@]12NC(=O)[C@H](C)NC(=O)[C@H](NC(=O)[C@H](CO)NC(=O)[C@@H](NC(=O)[C@H](NC(=O)[C@@H](CCC(N)=O)NC(=O)[C@H](CO)NC(=O)[C@@H](NC(=O)[C@@H](Cc1ccccc1)NC)[C@@H](C)CC)[C@@H](C)CC)[C@@H](C)CC)[C@H](C)NC(=O)[C@H]([C@@H](C)CC)NC2=O.O=C(O)C(F)(F)F [Example 4] | 8 | 4 | 4 | 8 | 8 | –
CC[C@H](C)[C@H](NC(=O)[C@@H](Cc1ccccc1)NC)C(=O)N[C@@H](CO)C(=O)N[C@H](CCC(N)=O)C(=O)N[C@@H](C(=O)N[C@H](C(=O)N[C@@H](CO)C(=O)N[C@H]1C(=O)N[C@@H](C)C(=O)N[C@]2(C[C@@H]2CC(F)F)C(=O)N[C@@H]([C@@H](C)CC)C(=O)N[C@H]1C)[C@@H](C)CC)[C@@H](C)CC.O=C(O)C(F)(F)F [Example 2] | 4 | 2 | 4 | 4 | 8 | –
CC[C@H](C)[C@H](NC(=O)[C@@H](Cc1ccccc1)NC)C(=O)N[C@@H](CO)C(=O)N[C@H](CCC(N)=O)C(=O)N[C@@H](C(=O)N[C@H](C(=O)N[C@@H](CO)C(=O)N[C@H]1C(=O)N[C@@H](C)C(=O)N[C@@]2(C[C@H]2CCN)C(=O)N[C@@H]([C@@H](C)CC)C(=O)O[C@H]1C)[C@@H](C)CC)[C@@H](C)CC.O=C(O)C(F)(F)F [Example 10] | 4 | 4 | 2 | 2 | 2 | –
